Source: ChEMBL document CHEMBL1153980, “Synthesis and anti-inflammatory activity of the major metabolites of imrecoxib” (Bioorg Med Chem Lett, 2009)

What was measured:
[1] = tested on: Rattus norvegicus; test: Antiinflammatory activity in rat assessed as inhibition of carrageenan induced paw edema at 10 mg/kg after 1 hr relative to control; assay type: functional
[2] = tested on: Rattus norvegicus; test: Antiinflammatory activity in rat assessed as inhibition of carrageenan induced paw edema at 10 mg/kg after 4 hrs relative to control; assay type: functional
[3] = organism: Mus musculus; test: Selectivity index, ratio of IC50 for COX1 to IC50 for COX2 in mouse peritoneal macrophages
[4] = target: Prostaglandin G/H synthase 1 (Mus musculus, UniProt P22437); test: Inhibition of calcimycin-induced COX1 activity
[5] = tested on: Rattus norvegicus; test: Antiinflammatory activity in rat assessed as inhibition of carrageenan induced paw edema at 10 mg/kg after 2 hrs relative to control; assay type: functional
[6] = target: T1, Prostaglandin G/H synthase 2 (Mus musculus, UniProt Q05769); test: Inhibition of COX2 in mouse peritoneal macrophages
T1 sequence (Q05769 whole entry): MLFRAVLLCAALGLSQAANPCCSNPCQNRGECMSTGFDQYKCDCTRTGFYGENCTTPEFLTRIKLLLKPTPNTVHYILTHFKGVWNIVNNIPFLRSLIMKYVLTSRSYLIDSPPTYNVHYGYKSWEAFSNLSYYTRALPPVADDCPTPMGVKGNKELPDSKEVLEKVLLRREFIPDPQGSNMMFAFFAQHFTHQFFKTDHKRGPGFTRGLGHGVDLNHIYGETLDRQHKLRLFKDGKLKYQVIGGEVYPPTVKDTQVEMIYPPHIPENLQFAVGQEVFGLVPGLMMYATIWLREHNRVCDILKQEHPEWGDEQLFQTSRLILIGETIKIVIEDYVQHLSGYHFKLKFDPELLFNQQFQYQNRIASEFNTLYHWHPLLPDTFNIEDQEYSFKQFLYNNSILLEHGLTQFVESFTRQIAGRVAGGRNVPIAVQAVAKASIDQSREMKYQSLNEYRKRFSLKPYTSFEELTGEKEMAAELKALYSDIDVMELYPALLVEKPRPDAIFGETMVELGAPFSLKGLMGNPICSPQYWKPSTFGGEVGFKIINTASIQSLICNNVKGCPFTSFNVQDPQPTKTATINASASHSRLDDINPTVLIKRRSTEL

[7] = tested on: Rattus norvegicus; test: Antiinflammatory activity in rat assessed as inhibition of carrageenan induced paw edema at 10 mg/kg after 3 hrs relative to control; assay type: functional
[8] = target: T2, Prostaglandin G/H synthase 1 (Mus musculus, UniProt P22437); test: Inhibition of COX1 in mouse peritoneal macrophages
T2 sequence (P22437 whole entry): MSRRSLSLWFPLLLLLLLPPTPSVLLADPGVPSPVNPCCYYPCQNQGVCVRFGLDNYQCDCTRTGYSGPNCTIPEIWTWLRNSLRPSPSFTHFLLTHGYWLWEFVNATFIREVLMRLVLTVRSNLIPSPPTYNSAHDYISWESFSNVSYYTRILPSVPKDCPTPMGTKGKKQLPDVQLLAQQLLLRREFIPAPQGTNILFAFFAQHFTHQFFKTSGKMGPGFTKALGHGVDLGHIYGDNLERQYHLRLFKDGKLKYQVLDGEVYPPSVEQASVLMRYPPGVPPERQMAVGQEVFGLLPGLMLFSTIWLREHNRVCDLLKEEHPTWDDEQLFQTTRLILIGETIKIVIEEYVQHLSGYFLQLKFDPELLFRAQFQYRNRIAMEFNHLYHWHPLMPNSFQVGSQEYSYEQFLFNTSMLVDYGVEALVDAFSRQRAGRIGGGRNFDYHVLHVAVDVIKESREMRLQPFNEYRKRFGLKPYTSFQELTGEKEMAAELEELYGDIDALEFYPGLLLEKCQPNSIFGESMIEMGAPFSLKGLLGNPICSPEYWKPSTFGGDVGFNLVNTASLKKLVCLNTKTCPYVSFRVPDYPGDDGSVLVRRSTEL

SMILES | inhibition in vivo at 10 mg/kg [1] [%] | inhibition in vivo at 10 mg/kg [2] [%] | Ratio IC50 [3] | IC50 [4] [nM] | inhibition in vivo at 10 mg/kg [5] [%] | IC50 [6] [nM] | inhibition in vivo at 10 mg/kg [7] [%] | IC50 [8] [nM]
CCCN1CC(c2ccc(S(C)(=O)=O)cc2)=C(c2ccc(C(=O)O)cc2)C1=O | 45.4 | 65.9 | 6.8 | 2780 | 51.9 | 410 | 55.5 | 
CCCN1CC(c2ccc(S(C)(=O)=O)cc2)=C(c2ccc(CO)cc2)C1=O | 26.5 | 63.9 | 6.2 |  | 46 | 14 | 56.1 | 87
Cc1ccc(-c2cc(C(F)(F)F)nn2-c2ccc(S(N)(=O)=O)cc2)cc1 [CELECOXIB] | 23.5 | 49.3 |  |  | 36.6 |  | 44.7 | 
CCCN1CC(c2ccc(S(C)(=O)=O)cc2)=C(c2ccc(C)cc2)C1=O [IMRECOXIB] | 31.3 | 50.4 | 6.4 |  | 39.5 | 18 | 50.4 | 115
